Consider 22 molecules from ChEMBL document CHEMBL1909046, “DrugMatrix in vitro pharmacology data”.

The target of assay [1] is Beta-2 adrenergic receptor (Homo sapiens, UniProt P07550). Briefly: DRUGMATRIX: Adrenergic beta2 radioligand binding (ligand: [3H] CGP-12177). In kind it is cell membranes, Membrane. Particulars: cho; Not Active = under 50% inhibition at 10 µM.
The target in another assay is T1, Adenosine receptor A3 (Homo sapiens, UniProt P0DMS8).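 Also: radioligand binding assay with AB-MECA serving as the labeled ligand; in other assays of this panel Not Active means under 50% inhibition at 10 µM.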
T1 sequence (P0DMS8 whole entry): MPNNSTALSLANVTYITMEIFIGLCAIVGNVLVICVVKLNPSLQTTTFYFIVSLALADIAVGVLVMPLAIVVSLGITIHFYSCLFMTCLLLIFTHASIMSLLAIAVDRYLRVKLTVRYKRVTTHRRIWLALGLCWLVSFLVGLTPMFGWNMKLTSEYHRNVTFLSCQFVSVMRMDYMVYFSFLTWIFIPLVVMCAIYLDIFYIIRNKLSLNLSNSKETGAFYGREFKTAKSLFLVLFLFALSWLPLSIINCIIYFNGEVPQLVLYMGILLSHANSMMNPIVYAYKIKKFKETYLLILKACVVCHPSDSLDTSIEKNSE
It is filed as cell membranes, CHO-K1, Membrane.

In the next assay the target is T2, Thromboxane-A synthase (Homo sapiens, UniProt P24557).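 Also: enzyme inhibition assay with PGH2 supplied as substrate; in other assays of this panel Not Active means under 50% inhibition at 10 µM.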
T2 sequence (P24557 whole entry): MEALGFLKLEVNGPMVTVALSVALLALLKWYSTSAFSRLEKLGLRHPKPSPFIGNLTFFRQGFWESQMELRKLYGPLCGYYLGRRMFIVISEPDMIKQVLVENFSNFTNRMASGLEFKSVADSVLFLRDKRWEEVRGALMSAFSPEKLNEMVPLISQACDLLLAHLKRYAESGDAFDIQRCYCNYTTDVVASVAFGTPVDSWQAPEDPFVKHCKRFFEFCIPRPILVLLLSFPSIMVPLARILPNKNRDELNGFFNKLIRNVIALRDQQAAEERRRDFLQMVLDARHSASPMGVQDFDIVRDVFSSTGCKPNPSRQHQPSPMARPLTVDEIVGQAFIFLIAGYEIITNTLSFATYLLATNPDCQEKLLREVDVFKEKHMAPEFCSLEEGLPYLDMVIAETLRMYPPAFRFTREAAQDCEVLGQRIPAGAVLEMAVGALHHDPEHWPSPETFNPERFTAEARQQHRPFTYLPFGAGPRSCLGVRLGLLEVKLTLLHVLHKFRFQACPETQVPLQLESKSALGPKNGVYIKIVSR
Briefly: biochemical. It is filed as tissue-based, Platelet.

The target of a further assay is Carbonic anhydrase 2 (Homo sapiens, UniProt P00918). Briefly: DRUGMATRIX: Carbonic Anhydrase II enzyme inhibition (substrate: 4-Nitrophenyl acetate (4-NPA)). In kind it is tissue-based, Erythrocyte. The conditions noted are these: erythrocyte; Not Active = under 50% inhibition at 10 µM.
Assay [2] deals with T3, Type-2 angiotensin II receptor (Homo sapiens, UniProt P50052).
T3 sequence (P50052 whole entry): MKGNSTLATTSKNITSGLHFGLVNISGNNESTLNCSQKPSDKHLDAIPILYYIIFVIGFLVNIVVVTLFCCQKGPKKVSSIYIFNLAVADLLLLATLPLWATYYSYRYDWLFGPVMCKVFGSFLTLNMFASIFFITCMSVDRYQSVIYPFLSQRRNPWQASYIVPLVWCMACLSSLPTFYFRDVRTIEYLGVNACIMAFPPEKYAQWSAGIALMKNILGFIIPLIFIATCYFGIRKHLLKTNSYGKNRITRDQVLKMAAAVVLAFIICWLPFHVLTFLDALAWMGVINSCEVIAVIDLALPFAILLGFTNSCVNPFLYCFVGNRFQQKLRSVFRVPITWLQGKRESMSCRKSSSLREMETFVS
In kind it is cell-based. The conditions noted are these: cho-k1.

The target in a further assay is Histamine H2 receptor (Homo sapiens, UniProt P25021). In kind it is cell membranes, CHO-K1, Membrane. Particulars: cho-k1. Also: in other assays of this panel Not Active means under 50% inhibition at 10 µM.
Histamine H2 receptor, sequence (P25021 whole entry): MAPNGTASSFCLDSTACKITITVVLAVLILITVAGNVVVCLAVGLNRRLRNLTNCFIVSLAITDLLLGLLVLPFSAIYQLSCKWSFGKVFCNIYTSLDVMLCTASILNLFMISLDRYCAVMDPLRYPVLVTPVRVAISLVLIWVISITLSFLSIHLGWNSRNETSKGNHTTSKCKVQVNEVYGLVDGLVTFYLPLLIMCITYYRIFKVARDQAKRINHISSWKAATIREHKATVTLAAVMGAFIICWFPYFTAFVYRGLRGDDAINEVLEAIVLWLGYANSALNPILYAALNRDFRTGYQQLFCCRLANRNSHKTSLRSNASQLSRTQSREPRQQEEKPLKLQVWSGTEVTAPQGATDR
A further assay addresses Vasopressin V1a receptor (Homo sapiens, UniProt P37288). In kind it is cell membranes, Membrane. Particulars: hek293.

The term IC50 denotes the concentration needed to halve the response being measured. By Ki is commonly meant a dissociation constant, usually derived from enzyme kinetics or from competition with a known ligand.

Beta-2 adrenergic receptor, sequence (P07550 whole entry): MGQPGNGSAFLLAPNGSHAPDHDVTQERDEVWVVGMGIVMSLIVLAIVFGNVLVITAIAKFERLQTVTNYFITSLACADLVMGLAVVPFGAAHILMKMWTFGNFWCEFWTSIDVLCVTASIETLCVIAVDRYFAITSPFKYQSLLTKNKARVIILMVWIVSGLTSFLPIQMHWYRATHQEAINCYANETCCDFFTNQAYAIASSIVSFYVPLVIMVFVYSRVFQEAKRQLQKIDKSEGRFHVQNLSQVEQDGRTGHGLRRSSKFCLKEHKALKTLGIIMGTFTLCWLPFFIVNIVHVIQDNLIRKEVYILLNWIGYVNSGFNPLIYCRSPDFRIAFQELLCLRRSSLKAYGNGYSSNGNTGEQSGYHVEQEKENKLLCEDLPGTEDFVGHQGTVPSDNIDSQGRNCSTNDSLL
Vasopressin V1a receptor, sequence (P37288 whole entry): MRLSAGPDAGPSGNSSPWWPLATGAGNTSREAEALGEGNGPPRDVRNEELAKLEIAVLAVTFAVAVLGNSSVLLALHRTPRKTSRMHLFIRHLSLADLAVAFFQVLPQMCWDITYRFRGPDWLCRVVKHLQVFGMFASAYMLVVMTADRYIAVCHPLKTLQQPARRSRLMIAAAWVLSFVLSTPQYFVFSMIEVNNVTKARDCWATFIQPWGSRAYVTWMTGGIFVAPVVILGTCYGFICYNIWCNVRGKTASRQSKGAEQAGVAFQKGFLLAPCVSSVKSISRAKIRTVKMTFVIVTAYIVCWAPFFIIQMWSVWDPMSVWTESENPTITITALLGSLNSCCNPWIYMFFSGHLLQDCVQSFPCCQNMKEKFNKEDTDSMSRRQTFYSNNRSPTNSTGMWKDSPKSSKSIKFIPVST

With `CC(C)(C)NC(=O)[C@@H]1C[C@@H]2CCCC[C@@H]2CN1C[C@@H](O)[C@H](Cc1ccccc1)NC(=O)[C@H](CC(N)=O)NC(=O)c1ccc2ccccc2n1`, the IC50 result is “Not Active” in assay [1]; “Not Active” against Adenosine receptor A3 (cho-k1); 2.18 µM on Thromboxane-A synthase (read-out: IC50); “Not Active” on Carbonic anhydrase 2; “Not Active” in assay [2]; “Not Active” against Histamine H2 receptor.
`CC(=O)[C@@]1(O)CC[C@H]2[C@@H]3C[C@H](C)C4=CC(=O)CC[C@]4(C)[C@H]3CC[C@@]21C`: the IC50 entry (against Vasopressin V1a receptor; in assay [1]; against Adenosine receptor A3 (cho-k1); at Thromboxane-A synthase (platelet); against Carbonic anhydrase 2; in assay [2]) was “Not Active” each time. The IC50 entry on Histamine H2 receptor is given as “Not Active”.
Take `N[C@@H](Cc1ccc(N(CCCl)CCCl)cc1)C(=O)O`: the IC50 entry (at Vasopressin V1a receptor; in assay [1]; against Adenosine receptor A3 (cho-k1); against Thromboxane-A synthase (platelet); on Carbonic anhydrase 2; in assay [2]) was “Not Active” in each case. For the same molecule, the half-inhibitory concentration (IC50) entry against Histamine H2 receptor is on record as “Not Active”.
`CCCCc1oc2ccccc2c1C(=O)c1cc(I)c(OCCN(CC)CC)c(I)c1` [AMIODARONE]: the IC50 entry (against Vasopressin V1a receptor; in assay [1]; against Thromboxane-A synthase (platelet); on Carbonic anhydrase 2; in assay [2]) was “Not Active” throughout.
As for `OCCN(CCO)c1nc(N2CCCCC2)c2nc(N(CCO)CCO)nc(N3CCCCC3)c2n1` [DIPYRIDAMOLE], the IC50 entry (on Vasopressin V1a receptor; in assay [1]; against Adenosine receptor A3 (cho-k1); against Thromboxane-A synthase (platelet); at Carbonic anhydrase 2; in assay [2]) was “Not Active” in each case. Also, on Histamine H2 receptor, the IC50 result is given as “Not Active”.
In the case of `Cc1oncc1C(=O)Nc1ccc(C(F)(F)F)cc1` [LEFLUNOMIDE], the IC50 entry (on Vasopressin V1a receptor; in assay [1]; at Adenosine receptor A3 (cho-k1); on Thromboxane-A synthase (platelet); at Carbonic anhydrase 2; in assay [2]) was “Not Active” throughout. For the same molecule, on Histamine H2 receptor, the IC50 entry is recorded as “Not Active”.
For `c1ccc([C@H]2CN3CCSC3=N2)cc1` [LEVAMISOLE], the IC50 result (against Vasopressin V1a receptor; in assay [1]; at Adenosine receptor A3 (cho-k1); against Thromboxane-A synthase (platelet); against Carbonic anhydrase 2; in assay [2]) was “Not Active” in each case. Besides, the IC50 entry against Histamine H2 receptor is “Not Active”.
For the molecule `N[C@@H](Cc1ccc(O)c(O)c1)C(=O)O` [LEVODOPA], the IC50 entry (against Vasopressin V1a receptor; in assay [1]; against Adenosine receptor A3 (cho-k1); at Thromboxane-A synthase (platelet); against Carbonic anhydrase 2; in assay [2]) was “Not Active” throughout. The IC50 result at Histamine H2 receptor is reported as “Not Active”.
As for `N[C@@H](Cc1cc(I)c(Oc2ccc(O)c(I)c2)c(I)c1)C(=O)O` [LIOTHYRONINE], the IC50 entry (against Vasopressin V1a receptor; in assay [1]; on Adenosine receptor A3 (cho-k1); against Thromboxane-A synthase (platelet); against Carbonic anhydrase 2; in assay [2]) was “Not Active” throughout. The IC50 result at Histamine H2 receptor is reported as “Not Active”.
Regarding `O=NN(CCCl)C(=O)NC1CCCCC1` [LOMUSTINE], the IC50 result (against Vasopressin V1a receptor; in assay [1]; against Adenosine receptor A3 (cho-k1); at Thromboxane-A synthase (platelet); on Carbonic anhydrase 2; in assay [2]) was “Not Active” throughout. For the same molecule, on Histamine H2 receptor, the IC50 entry is “Not Active”.
Turning to `CCOC(=O)N1CCC(=C2c3ccc(Cl)cc3CCc3cccnc32)CC1` [LORATADINE], the IC50 result (against Vasopressin V1a receptor; in assay [1]; at Adenosine receptor A3 (cho-k1); against Thromboxane-A synthase (platelet); against Carbonic anhydrase 2; in assay [2]) was “Not Active” in each case. The IC50 entry at Histamine H2 receptor is “Not Active”.
Consider `Cn1ccnc1S` [METHIMAZOLE], for which the IC50 result (at Vasopressin V1a receptor; in assay [1]; at Adenosine receptor A3 (cho-k1); at Thromboxane-A synthase (platelet); at Carbonic anhydrase 2; in assay [2]) was “Not Active” each time. Moreover, the IC50 entry against Histamine H2 receptor is “Not Active”.
On to `CC[C@@H](CO)NC(=O)[C@@H]1C=C2c3cccc4[nH]cc(c34)C[C@H]2N(C)C1` [METHYLERGONOVINE], for which the IC50 entry (against Vasopressin V1a receptor; in assay [1]; on Adenosine receptor A3 (cho-k1); on Thromboxane-A synthase (platelet); at Carbonic anhydrase 2; in assay [2]) was “Not Active” throughout. The IC50 entry against Histamine H2 receptor is given as “Not Active”.
On to `COc1nc(C)nc(Cl)c1NC1=NCCN1` [MOXONIDINE], for which the IC50 result (on Vasopressin V1a receptor; in assay [1]; against Adenosine receptor A3 (cho-k1); against Thromboxane-A synthase (platelet); on Carbonic anhydrase 2; in assay [2]) was “Not Active” each time. In addition, the IC50 entry against Histamine H2 receptor is reported as “Not Active”.
Turning to `COc1c(C)c2c(c(O)c1C/C=C(\C)CCC(=O)O)C(=O)OC2` [MYCOPHENOLIC ACID], the IC50 entry (on Vasopressin V1a receptor; in assay [1]; on Adenosine receptor A3 (cho-k1); at Thromboxane-A synthase (platelet); against Carbonic anhydrase 2; in assay [2]) was “Not Active” in each case. The IC50 entry at Histamine H2 receptor was “Not Active”.
Consider `O=c1ncn2nc(Sc3ccc(F)cc3F)ccc2c1-c1c(Cl)cccc1Cl` [NEFLAMAPIMOD], for which the IC50 entry was “Not Active” at Vasopressin V1a receptor; “Not Active” in assay [1]; 8.55 µM at Adenosine receptor A3 (read-out: IC50); “Not Active” at Thromboxane-A synthase (platelet); “Not Active” on Carbonic anhydrase 2; “Not Active” in assay [2]. Also, the IC50 entry at Histamine H2 receptor is recorded as “Not Active”. Also, the Ki on Adenosine receptor A3 (read-out: Ki) is 4.83 µM.
With `CN1CCN(CCCN2c3ccccc3Sc3ccc(Cl)cc32)CC1` [PROCHLORPERAZINE], the IC50 entry (against Vasopressin V1a receptor; in assay [1]; against Adenosine receptor A3 (cho-k1); at Thromboxane-A synthase (platelet); on Carbonic anhydrase 2; in assay [2]) was “Not Active” each time. The IC50 result against Histamine H2 receptor is recorded as “Not Active”.
As for `CO[C@H]1/C=C/O[C@@]2(C)Oc3c(C)c(O)c4c(O)c(c(/C=N/N5CCN(C)CC5)c(O)c4c3C2=O)NC(=O)/C(C)=C\C=C\[C@H](C)[C@H](O)[C@@H](C)[C@@H](O)[C@@H](C)[C@H](OC(C)=O)[C@@H]1C` [RIFAMPIN], the IC50 result (at Vasopressin V1a receptor; in assay [1]; against Adenosine receptor A3 (cho-k1); against Thromboxane-A synthase (platelet); at Carbonic anhydrase 2; in assay [2]) was “Not Active” throughout. For the same molecule, the IC50 entry against Histamine H2 receptor was “Not Active”.
Turning to `Nc1nc2ccc(OC(F)(F)F)cc2s1` [RILUZOLE], the IC50 result (against Vasopressin V1a receptor; in assay [1]; at Adenosine receptor A3 (cho-k1); at Thromboxane-A synthase (platelet); on Carbonic anhydrase 2; in assay [2]) was “Not Active” each time. Further, the IC50 entry against Histamine H2 receptor is “Not Active”.
For `Cc1nc2n(c(=O)c1CCN1CCC(c3noc4cc(F)ccc34)CC1)CCCC2` [RISPERIDONE], the IC50 result (on Vasopressin V1a receptor; in assay [1]; at Adenosine receptor A3 (cho-k1); at Thromboxane-A synthase (platelet); at Carbonic anhydrase 2; in assay [2]) was “Not Active” in each case.
As to `C=CCC1(C(C)CCC)C(=O)NC(=O)NC1=O` (stereo unspecified) [SECOBARBITAL], the IC50 result (at Vasopressin V1a receptor; in assay [1]; against Adenosine receptor A3 (cho-k1); against Thromboxane-A synthase (platelet); on Carbonic anhydrase 2; in assay [2]) was “Not Active” throughout. In addition, the IC50 result at Histamine H2 receptor is given as “Not Active”.
Turning to `C[C@@H]1CN(c2c(F)c(N)c3c(=O)c(C(=O)O)cn(C4CC4)c3c2F)C[C@H](C)N1` [SPARFLOXACIN], the IC50 result (against Vasopressin V1a receptor; in assay [1]; against Adenosine receptor A3 (cho-k1); at Thromboxane-A synthase (platelet); at Carbonic anhydrase 2; in assay [2]) was “Not Active” in each case. The IC50 entry on Histamine H2 receptor is “Not Active”.
